Source: US20240131112A1, “USE OF METHANOBACTIN FOR TREATMENT OF IRON-RELATED DISEASES” (Helmholtz Zentrum Muenchen - Deutsches Forschungszentrum …, priority 2021, published 2024)

How the values were obtained:
LPP Atp7b^−/− rats = assay: Fecal iron excretion after intraperitoneal injection; type: in vivo, rat; conditions: i.p. twice a day for four days, 110 mg/kg bw MB-SB2 or 150 mg/kg bw MB-OB3b, ICP-OES
Protocol: LPP Atp7b^−/− rats were injected intraperitoneally (i.p.) twice a day for four consecutive days with either 110 mg/kg bw MB-SB2 or 150 mg/kg bw MB-OB3b. Rats were housed individually in metabolic cages for 4 days. Feces of each rat was collected in 24-hour periods at 24, 48, 72 and 96 hours after treatment start. Feces was separated from chow residues, dried, homogenized by grinding or milling and digested with concentrated HNO3 and iron content determined with inductively coupled plasma optical emission spectrometry (ICP-OES).

[1] = system: Huh7 cells (human hepatoma cell line); assay: Cellular iron concentration in iron-preloaded Huh7 cells; type: cell-based; conditions: Huh7 preloaded 24 hours with 50 μM FAC, then 0.5 mM test substance for 24 hours, N=4
Protocol: FIG. 5: Control Huh7 cells (human hepatoma cell line) were preloaded for 24 hours with 50 μM FAC. The cells were then treated with 0.5 mM MB-SB2, 0.5 mM MB-OB3b and 0.5 mM DFO for 24 hours. […] Statistical analysis was done by One-way ANOVA (N=4).

[2] = system: livers from LPP Atp7b^−/− rats; assay: Liver perfusion experiments, biliary iron excretion; set-up: species or system rat; conditions: liver perfusion one hour at 37° C., 35 μmol methanobactin, ICP-OES
Protocol: Cannulated livers from LPP Atp7b^−/− rats were perfused for one hour at 37° C. with Krebs-Ringer bicarbonate solution, gassed with 95% O2 and 5% CO2, and MB-SB2 or MB-OB3b (35 μmol). During perfusion total bile was collected in 10-minute intervals. Biliary iron concentrations were determined by inductively coupled plasma optical emission spectrometry (ICP-OES) as described (Lichtmannegger et al. J Clin Invest, 2016, 126, 2721-2735).

Question: With `CC(NC(=O)C(C)NC(=S)C1N=C(C(NC(=O)C(CO)NC(=O)C(C)NC(=S)C2N=C(C(=O)CCCNC(=N)N)NC2=O)C(C)OS(=O)(=O)O)OC1=O)C(=O)O` (stereo not drawn) [MB-SB2] as the compound, how does the Fecal iron excretion (LPP Atp7b^−/− rats) read?
Answer: excrete iron in feces

Question: And the Cellular iron concentration [1]?
Answer: significantly reduces cellular iron concentration in iron-preloaded Huh7 cells to the untreated level

Question: And the Biliary iron excretion [2]?
Answer: brings iron to the bile
